From patent US5721267A, “Chemotherapeutic pyrrolocarbazole derivatives” (Syntex (U.S.A.) Inc., priority 1997, dated 1998)

Molecular target: T1, β1 isozyme of PKC from rat brain (Rattus norvegicus, UniProt P68403)
T1 construct: β1 isozyme of PKC from rat brain; from tissue; host or cells: rat brain
Experiment: Protein kinase C inhibition assay (32P incorporation from γ-32P ATP into synthetic peptide substrate)
Type: biochemical
Conditions: activated by 5×10^-6 M diC8 and 1 μg/mL phosphatidylserine, 50 μM ATP, read-out: IC50 (concentration necessary to achieve 50% inhibition of PKC)
Procedure: In vitro activity for protein kinase C inhibition, is quantitated by measuring incorporation of […] from γ-^32 P ATP into synthetic peptide substrates.
Protein Kinase C (PKC) inhibitory activity is quantitated by measuring incorporation of ^32 P from γ-^32 P ATP into synthetic peptide substrates. The inhibitory potential is measured using the β1 isozyme of PKC from rat brain and the synthetic peptide substrate ala-lys-arg-arg-arg-leu-ser-ser-leu-arg-ala.
A reaction mixture containing 25 mM Tris-HCl, pH 7.5, 2.5 mM Mg(NO3), 1.0 mM EGTA, 20 μM substrate, 1 μg/mL phosphatidlserine (PS), 5×10 ^-6 M diacylglycerol(di-C8), and 50 μM ATP is spiked with γ-^32 P ATP (>5,000 Ci/mmol) to provide approximately 10^6 CPM per reaction and 0.08 μg/mL PKC in a 50 μl volume per well. The assay is run with or without test compound, added at various concentrations. After five minutes incubation at room temperature, the reaction is stopped by the addition of 0.2V of a 50% TCA solution. A 30 μl sample from each well (control and test compound) is then spotted onto Whatman P-81 ion exchange chromatography paper, and 32-P incorporation is then counted on a Beckman LS 5000 TA liquid scintillation counter. […]
% Inhibition=1.0 -[(sample CPM-basal CPM)/(total CPM-basal CPM)]×100 and the concentration necessary to achieve 50% Inhibition is determined.

T1 sequence (P68403 whole entry): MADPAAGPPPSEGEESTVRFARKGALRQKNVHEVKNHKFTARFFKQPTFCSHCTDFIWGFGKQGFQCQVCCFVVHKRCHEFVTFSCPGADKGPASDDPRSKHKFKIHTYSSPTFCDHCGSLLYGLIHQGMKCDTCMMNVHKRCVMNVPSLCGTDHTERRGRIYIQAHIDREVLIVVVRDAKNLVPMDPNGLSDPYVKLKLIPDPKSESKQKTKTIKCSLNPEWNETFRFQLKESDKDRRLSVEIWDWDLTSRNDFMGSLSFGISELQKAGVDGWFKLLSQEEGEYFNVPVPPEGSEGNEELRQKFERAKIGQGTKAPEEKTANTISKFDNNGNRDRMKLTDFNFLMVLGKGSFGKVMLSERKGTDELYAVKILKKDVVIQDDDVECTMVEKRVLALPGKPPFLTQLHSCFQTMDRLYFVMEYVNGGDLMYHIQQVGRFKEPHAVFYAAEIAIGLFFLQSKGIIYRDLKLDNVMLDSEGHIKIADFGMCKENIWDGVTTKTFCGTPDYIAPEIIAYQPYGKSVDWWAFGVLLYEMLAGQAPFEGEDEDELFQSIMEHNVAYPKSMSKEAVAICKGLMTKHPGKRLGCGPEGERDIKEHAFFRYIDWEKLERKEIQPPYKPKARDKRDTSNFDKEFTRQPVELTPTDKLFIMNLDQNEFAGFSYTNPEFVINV

Structure (SMILES): CNCCCn1c2ccccc2c2c3c(c(-c4ccsc4)cc21)C(=O)NC3=O [1,3-dioxo-6-(3-methylaminopropyl)-1,2,3,6-tetrahydro-4-(thiophen-3-yl)-pyrrolo[3,4-c]carbazole]
- IC50: 0.03 µM
